Measurements published in PubChem BioAssay AID2060612 (Molecular Pharmacology Branch, DTP, NCI, 2025).

Tested on: 565232-114-T-J1-PDC complex spheroid viability
Test: Anticancer human tumor 565232-114-T-J1-PDC patient-derived bladder carcinoma cell line growth inhibition [CLK]
Conditions: for IC50: curve of first compound; for viability, T/C: stronger effect = lower value
Procedure, shortened: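 Patient-derived tumor cells grown as complex spheroids with HUVEC endothelial cells and mesenchymal stem cells, treated with drug combinations. Concentrations descend in half-log steps from near clinical Cmax, or from 10 microM if Cmax unknown.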

[1] = second compound 0.0316 µM, first compound 0.0316 µM
[2] = second compound 0.0316 µM, first compound 0.1 µM
[3] = second compound 0.0316 µM, first compound 0.316 µM
[4] = second compound 0.0316 µM, first compound 1 µM
[5] = second compound 0.0316 µM, first compound 3.16 µM
[6] = second compound 0.0316 µM, first compound 10 µM
[7] = second compound 0.1 µM, first compound 0.0316 µM
[8] = second compound 0.1 µM, first compound 0.1 µM
[9] = second compound 0.1 µM, first compound 0.316 µM
[10] = second compound 0.1 µM, first compound 1 µM
[11] = second compound 0.1 µM, first compound 3.16 µM
[12] = second compound 0.1 µM, first compound 10 µM
[13] = second compound 0.316 µM, first compound 0.0316 µM
[14] = second compound 0.316 µM, first compound 0.1 µM
[15] = second compound 0.316 µM, first compound 0.316 µM
[16] = second compound 0.316 µM, first compound 1 µM
[17] = second compound 0.316 µM, first compound 3.16 µM
[18] = second compound 0.316 µM, first compound 10 µM
[19] = second compound 1 µM, first compound 0.0316 µM
[20] = second compound 1 µM, first compound 0.1 µM
[21] = second compound 1 µM, first compound 0.316 µM
[22] = second compound 1 µM, first compound 1 µM
[23] = second compound 1 µM, first compound 3.16 µM
[24] = second compound 1 µM, first compound 10 µM
[25] = second compound 3.16 µM, first compound 0.0316 µM
[26] = second compound 3.16 µM, first compound 0.1 µM
[27] = second compound 3.16 µM, first compound 0.316 µM
[28] = second compound 3.16 µM, first compound 1 µM
[29] = second compound 3.16 µM, first compound 3.16 µM
[30] = second compound 3.16 µM, first compound 10 µM
[31] = second compound 10 µM, first compound 0.0316 µM
[32] = second compound 10 µM, first compound 0.1 µM
[33] = second compound 10 µM, first compound 0.316 µM
[34] = second compound 10 µM, first compound 1 µM
[35] = second compound 10 µM, first compound 3.16 µM
[36] = second compound 10 µM, first compound 10 µM
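Note: spheroids exposed to compounds for 7 days before readout.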
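Throughout, for viability, T/C: 100% = DMSO vehicle wells with luminescence normalized to vehicle control.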

`C#Cc1c(F)ccc2cc(O)cc(-c3ncc4c(N5CC6CCC(C5)N6)nc(OCC56CCCN5CC(F)C6)nc4c3F)c12` (stereo unspecified) + CNC(=O)c1ccc(Nc2nc(OC3CCCC3)c3c(-c4ccc5nc(C)oc5c4)c[nH]c3n2)c(OC)c1 was tested, and the IC50 (second compound 0.0316 µM) was greater than 10000 nM, the IC50 (second compound 0.1 µM) was less than 31.6 nM and the IC50 (second compound 0.316 µM) was less than 31.6 nM. It also gave an IC50 (second compound 1 µM) of less than 31.6 nM, an IC50 (second compound 3.16 µM) of less than 31.6 nM and an IC50 (second compound 10 µM) of less than 31.6 nM. For the same compound, the viability, T/C [1] was 78.9%, the viability, T/C [2] was 67.7% and the viability, T/C [3] was 95.5%. The viability, T/C [4] was 75.6%, the viability, T/C [5] was 119% and the viability, T/C [6] was 89.6%. For the same compound, the viability, T/C [7] was 49.6%, the viability, T/C [8] was 46.9% and the viability, T/C [9] was 45.9%. For the same compound, the viability, T/C [10] was 53.2%, the viability, T/C [11] was 51.5% and the viability, T/C [12] was 44.2%. It also gave a viability, T/C [13] of 33.3%, a viability, T/C [14] of 31.7% and a viability, T/C [15] of 28.9%. It also gave a viability, T/C [16] of 28.1%, a viability, T/C [17] of 31.5% and a viability, T/C [18] of 23%. It also gave a viability, T/C [19] of 25.8%, a viability, T/C [20] of 25.6% and a viability, T/C [21] of 22.3%. The viability, T/C [22] was 17.4%, the viability, T/C [23] was 21.5% and the viability, T/C [24] was 17.3%. The viability, T/C [25] was 18.6%, the viability, T/C [26] was 16.2% and the viability, T/C [27] was 18.8%. For the same compound, the viability, T/C [28] was 16.4%, the viability, T/C [29] was 16.4% and the viability, T/C [30] was 11.6%. It also gave a viability, T/C [31] of 18.6%, a viability, T/C [32] of 17.3% and a viability, T/C [33] of 12.3%. The viability, T/C [34] was 14.8%, the viability, T/C [35] was 19.7% and the viability, T/C [36] was 9.9%.

For `C=C(F)C(=O)N1CCN(c2nc(OCC3CCCN3C)nc3c2CCN(c2cccc4cccc(Cl)c24)C3)CC1CC#N` (stereo unspecified) + CNC(=O)c1ccc(Nc2nc(OC3CCCC3)c3c(-c4ccc5nc(C)oc5c4)c[nH]c3n2)c(OC)c1, the IC50 (second compound 0.0316 µM) was 5870 nM, the IC50 (second compound 0.1 µM) was 3910 nM and the IC50 (second compound 0.316 µM) was less than 31.6 nM. The IC50 (second compound 1 µM) was less than 31.6 nM, the IC50 (second compound 3.16 µM) was less than 31.6 nM and the IC50 (second compound 10 µM) was less than 31.6 nM. For the same compound, the viability, T/C [1] was 116%, the viability, T/C [2] was 79.8% and the viability, T/C [3] was 116%. It also gave a viability, T/C [4] of 101%, a viability, T/C [5] of 127% and a viability, T/C [6] of 0.2%. The viability, T/C [7] was 57.3%, the viability, T/C [8] was 58.6% and the viability, T/C [9] was 53.5%. The viability, T/C [10] was 68.6%, the viability, T/C [11] was 68.4% and the viability, T/C [12] was 0.17%. For the same compound, the viability, T/C [13] was 35.9%, the viability, T/C [14] was 33.5% and the viability, T/C [15] was 34.2%. For the same compound, the viability, T/C [16] was 28.8%, the viability, T/C [17] was 37.1% and the viability, T/C [18] was 0.14%. For the same compound, the viability, T/C [19] was 20.6%, the viability, T/C [20] was 26.6% and the viability, T/C [21] was 29.4%. The viability, T/C [22] was 22.3%, the viability, T/C [23] was 22.9% and the viability, T/C [24] was 0.13%. For the same compound, the viability, T/C [25] was 16.9%, the viability, T/C [26] was 19.2% and the viability, T/C [27] was 17.3%. For the same compound, the viability, T/C [28] was 17.1%, the viability, T/C [29] was 17.4% and the viability, T/C [30] was 0.17%. For the same compound, the viability, T/C [31] was 17.4%, the viability, T/C [32] was 18.9% and the viability, T/C [33] was 16.9%. It also gave a viability, T/C [34] of 16.4%, a viability, T/C [35] of 18.4% and a viability, T/C [36] of 0.23%.

`C=CC(=O)N1CCN(c2nc(=O)n(-c3c(C)ccnc3C(C)C)c3nc(-c4c(O)cccc4F)c(F)cc23)C(C)C1` (stereo unspecified) + CNC(=O)c1ccc(Nc2nc(OC3CCCC3)c3c(-c4ccc5nc(C)oc5c4)c[nH]c3n2)c(OC)c1 gave an IC50 (second compound 0.0316 µM) greater than 10000 nM, an IC50 (second compound 0.1 µM) greater than 10000 nM and an IC50 (second compound 0.316 µM) of less than 31.6 nM. For the same compound, the IC50 (second compound 1 µM) was less than 31.6 nM, the IC50 (second compound 3.16 µM) was less than 31.6 nM and the IC50 (second compound 10 µM) was less than 31.6 nM. For the same compound, the viability, T/C [1] was 102%, the viability, T/C [2] was 83.5% and the viability, T/C [3] was 98.2%. For the same compound, the viability, T/C [4] was 94.4%, the viability, T/C [5] was 105% and the viability, T/C [6] was 118%. For the same compound, the viability, T/C [7] was 64.9%, the viability, T/C [8] was 55.1% and the viability, T/C [9] was 57.2%. The viability, T/C [10] was 58.2%, the viability, T/C [11] was 69.6% and the viability, T/C [12] was 58.8%. The viability, T/C [13] was 35.3%, the viability, T/C [14] was 37.5% and the viability, T/C [15] was 34.3%. For the same compound, the viability, T/C [16] was 32.8%, the viability, T/C [17] was 42.5% and the viability, T/C [18] was 37.8%. The viability, T/C [19] was 21.6%, the viability, T/C [20] was 24.7% and the viability, T/C [21] was 25.1%. For the same compound, the viability, T/C [22] was 26.1%, the viability, T/C [23] was 29.1% and the viability, T/C [24] was 27.5%. The viability, T/C [25] was 21.4%, the viability, T/C [26] was 19.8% and the viability, T/C [27] was 21.8%. The viability, T/C [28] was 23.6%, the viability, T/C [29] was 28.3% and the viability, T/C [30] was 23.2%. It also gave a viability, T/C [31] of 22.1%, a viability, T/C [32] of 14.6% and a viability, T/C [33] of 18.9%. It also gave a viability, T/C [34] of 26%, a viability, T/C [35] of 28.1% and a viability, T/C [36] of 25%.
